The source of these data is US20220380338A1, “CYCLOALKYL 3-OXOPIPERAZINE CARBOXAMIDES AND CYCLOHETEROALKYL 3-OXOPIPERAZINE CARBOXAMIDES AS NAV1.8 INHIBITORS” (Merck Sharp & Dohme LLC, priority 2021, published 2022).

By IC50 is commonly meant the concentration at which inhibition is half-maximal. A lower IC50 goes with higher potency.

The target in the assay is T1, human NaV1.8 (Homo sapiens, UniProt Q9Y5Y9).
T1 construct: expressed in transfected cells
T1 sequence (Q9Y5Y9 whole entry): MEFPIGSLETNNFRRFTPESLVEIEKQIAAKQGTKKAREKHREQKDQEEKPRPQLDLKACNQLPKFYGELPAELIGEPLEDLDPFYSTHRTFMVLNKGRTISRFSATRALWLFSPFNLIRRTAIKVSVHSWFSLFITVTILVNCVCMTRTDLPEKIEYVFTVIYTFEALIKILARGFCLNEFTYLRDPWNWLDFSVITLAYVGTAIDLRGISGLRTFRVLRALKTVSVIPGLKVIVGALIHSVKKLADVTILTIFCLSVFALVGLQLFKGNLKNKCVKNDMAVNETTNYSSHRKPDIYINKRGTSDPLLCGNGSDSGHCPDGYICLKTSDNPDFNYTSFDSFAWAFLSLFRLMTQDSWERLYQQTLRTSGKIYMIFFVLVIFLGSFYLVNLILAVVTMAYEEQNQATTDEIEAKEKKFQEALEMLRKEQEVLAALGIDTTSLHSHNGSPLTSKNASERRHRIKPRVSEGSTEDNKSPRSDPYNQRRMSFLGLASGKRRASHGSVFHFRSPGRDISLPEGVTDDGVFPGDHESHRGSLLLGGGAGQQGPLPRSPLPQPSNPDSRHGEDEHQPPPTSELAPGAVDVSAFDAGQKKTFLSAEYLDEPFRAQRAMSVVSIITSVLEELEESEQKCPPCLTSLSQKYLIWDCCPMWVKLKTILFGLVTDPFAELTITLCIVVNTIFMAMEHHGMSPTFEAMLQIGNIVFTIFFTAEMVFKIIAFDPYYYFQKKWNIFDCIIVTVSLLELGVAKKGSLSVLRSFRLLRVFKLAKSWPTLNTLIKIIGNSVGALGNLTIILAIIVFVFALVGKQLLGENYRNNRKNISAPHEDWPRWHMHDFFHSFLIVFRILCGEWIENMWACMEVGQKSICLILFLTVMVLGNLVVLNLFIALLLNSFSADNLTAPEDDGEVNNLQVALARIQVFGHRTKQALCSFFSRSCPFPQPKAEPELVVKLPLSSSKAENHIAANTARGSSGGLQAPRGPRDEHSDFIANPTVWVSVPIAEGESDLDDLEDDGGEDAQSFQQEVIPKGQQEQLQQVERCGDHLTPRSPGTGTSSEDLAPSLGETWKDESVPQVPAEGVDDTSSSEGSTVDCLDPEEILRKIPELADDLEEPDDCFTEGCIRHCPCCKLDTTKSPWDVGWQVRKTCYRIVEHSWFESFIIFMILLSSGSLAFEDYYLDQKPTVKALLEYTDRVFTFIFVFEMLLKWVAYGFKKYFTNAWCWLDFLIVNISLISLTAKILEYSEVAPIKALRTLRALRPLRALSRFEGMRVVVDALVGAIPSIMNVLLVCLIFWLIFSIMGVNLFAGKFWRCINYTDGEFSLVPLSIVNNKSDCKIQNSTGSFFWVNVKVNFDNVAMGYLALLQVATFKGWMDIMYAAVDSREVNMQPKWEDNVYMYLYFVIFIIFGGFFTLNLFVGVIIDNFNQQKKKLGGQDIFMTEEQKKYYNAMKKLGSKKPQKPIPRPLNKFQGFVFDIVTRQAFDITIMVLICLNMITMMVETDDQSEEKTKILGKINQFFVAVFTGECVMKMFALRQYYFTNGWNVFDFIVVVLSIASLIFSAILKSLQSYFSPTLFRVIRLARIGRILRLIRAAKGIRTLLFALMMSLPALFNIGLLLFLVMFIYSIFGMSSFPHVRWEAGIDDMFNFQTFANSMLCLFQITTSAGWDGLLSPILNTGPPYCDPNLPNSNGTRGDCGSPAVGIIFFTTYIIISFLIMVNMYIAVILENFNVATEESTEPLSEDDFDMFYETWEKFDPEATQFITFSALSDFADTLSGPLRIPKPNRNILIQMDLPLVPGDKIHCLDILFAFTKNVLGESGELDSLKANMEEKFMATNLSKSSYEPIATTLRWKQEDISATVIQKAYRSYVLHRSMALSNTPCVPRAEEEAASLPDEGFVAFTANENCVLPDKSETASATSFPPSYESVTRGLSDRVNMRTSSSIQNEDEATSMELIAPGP
Nature of the assay: Nav1.8 Qube® Assay (automated 384-well patch-clamp, inhibition of sodium current). Type of assay: cell-based. The conditions noted are these: human NaV1.8 channels stably expressed in HEK 293 cells, room temperature. Here is the method: Compounds were tested on human NaV1.8 and NaV1.5 channels stably expressed in human embryo kidney (HEK) 293 cells. Sodium current measurements on Qube® were conducted as follows: automated 384-well patch-clamp assays on the Qube® platform (Sophion Biosciences) were used to measure the inhibition of sodium flow through human NaV1.8 and NaV1.5 channels. Whole-cell voltage-clamp recordings were performed in QChips® (Sophion Biosciences) at room temperature. NaV1.8 current measurements on Qube® were obtained as follows: NaV1.8 currents were elicited with a 10 second 1 Hertz (Hz) pulse train from a holding potential of −90 millivolts (mV), delivered to the cells once per minute in the control condition (DMSO only) and after compound addition. The 1 hertz pulse train stimulation consisted of ten test pulses to 10 millivolt (mV) for 20 milliseconds (ms), each of which was followed by a 980 millisecond repolarization to −67 millivolts. At the end of the 10 second pulse train stimulation, a 5 second hyperpolarization step to −100 millivolt (mV) was used to recover NaV1.8 from fast inactivation. The peak currents elicited by the 1st and 10th test pulses were used to determine IC50 values for resting inhibition and inactivated state inhibition. NaV1.5 current measurements on Qube® were obtained as follows: NaV1.5 currents were elicited with a 20 second 3 Hertz pulse train in the control condition (DMSO only) and after compound addition. The pulse train consisted of sixty 20 millisecond test pulses to 0 millivolt from a holding potential of −80 millivolt (mV). The average peak currents elicited by the last 3 test pulses were used to determine IC50 values for NaV1.5 inhibition.
The following buffers were used for the Qube® recordings: External buffer for NaV1.8 Qube® recording: 150 NaCl, 2 CaCl2, 5 KCl, 1 Mg Cl2, 10 HEPES, 12 Dextrose; External buffer for Qube® NaV1.5 recording: 120 N-Methyl-D-Glucamine, 40 NaCl, 1 KCl, 2.7 CaCl2, 5 HEPES, 0.5 MgCl2; and Internal buffer for Qube® recording: 120 CsF, 30 CsCl, 10 EGTA, 5 HEPES, 5 NaF, 2 MgCl2.
For all Qube® experiments offline analysis was used to determine percent inhibition as a function of drug concentration. IC50 values were determined by fitting to the Hill equation.
Turning to `C[C@@H]1C(=O)NCCN1C(=O)NC(c1ccc(F)c(Cl)c1F)[C@@H]1C[C@@H]2[C@H](C1)C2(F)F` (single isomer, unassigned) [Example 11A, (R)-N-((R or S)-(3-chloro-2,4-difluoro-phenyl)((1R,3s,5S)-6,6-difluoro-bicyclo[3.1.0]hexan-3-yl)methyl)-2-methyl-3-oxo-piperazine-1-carboxamide], the IC50 turned out to be 870 nM.

As for `C[C@@H]1C(=O)NCCN1C(=O)NC(c1ccc(F)c(Cl)c1F)[C@@H]1C[C@@H]2[C@H](C1)C2(F)F` (single isomer, unassigned) [Example 11B, (R)-N-((S or R)-(3-chloro-2,4-difluoro-phenyl)((1R,3s,5S)-6,6-difluoro-bicyclo[3.1.0]hexan-3-yl)methyl)-2-methyl-3-oxo-piperazine-1-carboxamide], the IC50 was 4.14 nM.

As to `O=C1CN(C(=O)NC(c2ccc(F)c(Cl)c2)C23CCC(C(F)(F)F)(CC2)CC3)CCN1` (single isomer, unassigned) [Example 12A, N-((R or S)-(3-chloro-4-fluoro-phenyl)(4-(trifluoro-methyl)bicyclo[2.2.2]octan-1-yl)methyl)-3-oxopiperazine-1-carboxamide], the midpoint of inhibition, the IC50, lay at 343 nM.

Consider `O=C1CN(C(=O)NC(c2ccc(F)c(Cl)c2)C23CCC(C(F)(F)F)(CC2)CC3)CCN1` (single isomer, unassigned) [Example 12B, N-((S or R)-(3-chloro-4-fluoro-phenyl)(4-(trifluoro-methyl)bicyclo[2.2.2]octan-1-yl)methyl)-3-oxopiperazine-1-carboxamide], for which the IC50 was found to be 11.5 nM. In the case of `C[C@@H]1C(=O)NCCN1C(=O)NC(c1ccc(F)c(Cl)c1F)C1CCC(F)(F)CC1` (single isomer, unassigned) [Example 13A, (2R)-N-((R or S)-(3-chloro-2,4-difluoro-phenyl)(4,4-difluoro-cyclohexyl)methyl)-2-methyl-3-oxo-piperazine-1-carboxamide] it was 13.4 nM. As for `C[C@@H]1C(=O)NCCN1C(=O)NC(c1ccc(F)c(Cl)c1F)C1CCC(F)(F)CC1` (single isomer, unassigned) [Example 13B, (2R)-N-((S or R)-(3-chloro-2,4-difluoro-phenyl)(4,4-difluoro-cyclohexyl)methyl)-2-methyl-3-oxo-piperazine-1-carboxamide], the IC50 stood at 726 nM.

Consider `C[C@@H]1C(=O)NCCN1C(=O)NC(c1ccc(F)c(Cl)c1)C1CCC(F)(F)CC1` (single isomer, unassigned) [Example 14A, (2R)-N-((R or S)-(3-chloro-4-fluoro-phenyl)(4,4-difluoro-cyclohexyl)methyl)-2-methyl-3-oxo-piperazine-1-carboxamide], for which the IC50 worked out at 18.5 nM.

`C[C@@H]1C(=O)NCCN1C(=O)NC(c1ccc(F)c(Cl)c1)C1CCC(F)(F)CC1` (single isomer, unassigned) [Example 14B, (2R)-N-((S or R)-(3-chloro-4-fluoro-phenyl)(4,4-difluoro-cyclohexyl)methyl)-2-methyl-3-oxo-piperazine-1-carboxamide] showed an IC50 of 359 nM. In the case of `C[C@@H]1C(=O)NCCN1C(=O)NC(c1ccc(F)c(Cl)c1)C1CCN(CC(F)(F)F)CC1` (single isomer, unassigned) [Example 15A] it was 28.3 nM; in that of `C[C@@H]1C(=O)NCCN1C(=O)NC(c1ccc(F)c(Cl)c1)C1CCN(CC(F)(F)F)CC1` (single isomer, unassigned) [Example 15B], 553 nM; in that of `C[C@@H]1C(=O)NCCN1C(=O)NC(c1ccc(Cl)cc1)C1CCN(CC(F)(F)F)CC1` (single isomer, unassigned) [Example 16A, (2R)-N-((R or S)-(4-chlorophenyl)(1-(2,2,2-trifluoroethyl)piperidin-4-yl)methyl)-2-methyl-3-oxopiperazine-1-carboxamide], 366 nM. The compound `C[C@@H]1C(=O)NCCN1C(=O)NC(c1ccc(Cl)cc1)C1CCN(CC(F)(F)F)CC1` (single isomer, unassigned) [Example 16B, (2R)-N-((S or R)-(4-chlorophenyl)(1-(2,2,2-trifluoroethyl)piperidin-4-yl)methyl)-2-methyl-3-oxopiperazine-1-carboxamide] gave an IC50 of 936 nM. In turn, `O=C1CN(C(=O)NC(c2ccc(F)c(Cl)c2)C2CCN(CC(F)(F)F)CC2)CCN1` (single isomer, unassigned) [Example 17A, N-((R or S)-(3-chloro-4-flurophenyl)(1-(2,2,2-trifluoroethyl)piperidin-4-yl)methyl)-3-oxopiperazine-1-carboxamide] had an IC50 of 1630 nM. In the case of `O=C1CN(C(=O)NC(c2ccc(F)c(Cl)c2)C2CCN(CC(F)(F)F)CC2)CCN1` (single isomer, unassigned) [Example 17B, N-((S or R)-(3-chloro-4-fluorophenyl)(1-(2,2,2-trifluoroethyl)piperidin-4-yl)methyl)-3-oxopiperazine-1-carboxamide], the IC50 stood at 136 nM. Then `CC(N1CCC(C(NC(=O)N2CCNC(=O)[C@H]2C)c2ccc(F)c(Cl)c2)CC1)C(F)(F)F` (single isomer, unassigned) [Example 18A], with 4.1 nM.

The compound `CC(N1CCC(C(NC(=O)N2CCNC(=O)[C@H]2C)c2ccc(F)c(Cl)c2)CC1)C(F)(F)F` (single isomer, unassigned) [Example 18B] came in with an IC50 of 6.87 nM. The compound `CC(N1CCC(C(NC(=O)N2CCNC(=O)[C@H]2C)c2ccc(F)c(Cl)c2)CC1)C(F)(F)F` (single isomer, unassigned) [Example 18C] gave an IC50 of 91.6 nM. Compound `CC(N1CCC(C(NC(=O)N2CCNC(=O)[C@H]2C)c2ccc(F)c(Cl)c2)CC1)C(F)(F)F` (single isomer, unassigned) [Example 18D] came in with an IC50 of 83.5 nM. `C[C@@H]1C(=O)NCCN1C(=O)NC(c1ccc(F)c(Cl)c1)C1CCC2(CC1)CC2(F)F` (single isomer, unassigned) [Example 19A] displayed an IC50 of 5.75 nM. In the case of `C[C@@H]1C(=O)NCCN1C(=O)NC(c1ccc(F)c(Cl)c1)C1CCC2(CC1)CC2(F)F` (single isomer, unassigned) [Example 19B] it was 3.23 nM.

On to `C[C@@H]1C(=O)NCCN1C(=O)NC(c1ccc(F)c(Cl)c1)C1CCC2(CC1)CC2(F)F` (single isomer, unassigned) [Example 19C], for which the IC50 came out at 15.7 nM. As to `C[C@@H]1C(=O)NCCN1C(=O)NC(c1ccc(F)c(Cl)c1)C1CCC2(CC1)CC2(F)F` (single isomer, unassigned) [Example 19D], the IC50 was 10 nM. In the case of `C[C@@H]1C(=O)NCCN1C(=O)NC(c1ccc(F)c(Cl)c1F)C1CC(C(F)(F)F)C1` (single isomer, unassigned) [Example 20A] it was 1.37 nM; in that of `C[C@@H]1C(=O)NCCN1C(=O)NC(c1ccc(F)c(Cl)c1F)C1CC(C(F)(F)F)C1` (single isomer, unassigned) [Example 20C], 9.02 nM; in that of `C[C@@H]1C(=O)NCCN1C(=O)NC(c1ccc(F)c(Cl)c1F)C1CC(C(F)(F)F)C1` (single isomer, unassigned) [Example 20D], 116 nM. In turn, `C[C@@H]1C(=O)NCCN1C(=O)NC(c1ccc(F)c(Cl)c1F)C1CC(C2CC2)C1` (single isomer, unassigned) [Example 21A, (2R)-N-((R or S)-(3-chloro-2,4-difluoro-phenyl)(trans or cis-3-cyclopropylcyclobutyl)methyl)-2-methyl-3-oxopiperazine-1-carboxamide] had an IC50 of 1.08 nM.

Compound `C[C@@H]1C(=O)NCCN1C(=O)NC(c1ccc(F)c(Cl)c1F)C1CC(C2CC2)C1` (single isomer, unassigned) [Example 21B, (2R)-N-((R or S)-(3-chloro-2,4-difluoro-phenyl)(cis or trans-3-cyclopropylcyclobutyl)methyl)-2-methyl-3-oxopiperazine-1-carboxamide] returned an IC50 of 2.87 nM.

On to `C[C@@H]1C(=O)NCCN1C(=O)NC(c1ccc(F)c(Cl)c1F)C1CC(C2CC2)C1` (single isomer, unassigned) [Example 21C, (2R)-N-((S or R)-(3-chloro-2,4-difluoro-phenyl)(trans or cis-3-cyclopropyl-cyclobutyl)-methyl)-2-methyl-3-oxopiperazine-1-carboxamide], for which the IC50 came to 59.7 nM.

For `C[C@@H]1C(=O)NCCN1C(=O)NC(c1ccc(F)c(Cl)c1F)C1CC(C2CC2)C1` (single isomer, unassigned) [Example 21D, (2R)-N-((S or R)-(3-chloro-2,4-difluoro-phenyl)(cis or trans-3-cyclopropyl-cyclobutyl)-methyl)-2-methyl-3-oxopiperazine-1-carboxamide], the IC50 is 128 nM.
